Assay results: US4293700A, “2,6-Dimethyl-1,4-dihydropyridine-3,5-dicarboxylic acid esters and method for preparing same” (priority 1978, dated 1981)
Structures can show the parent of a compound that is named as a salt. Each block holds one compound with its values, some of them ahead of it.

Tests used:
[1] = system: metastases; conditions: in words; cited from earlier work
[2] = cited from earlier work
[3] = system: Lewis lungs carcinoma; test: Antimetastatic activity: life duration of mice with Lewis lungs carcinoma; assay type: in vivo; conditions: after the removal of the primary tumor, 10 days
Method: (§1) Antimetastatic properties of esters of 2,6-dimethyl-1,4-dihydropyridine-3,5-dicarboxylic acid have been tested on Walker carcinosarcoma, sarcoma 536 and Lewis pneumocarbinoma using mice and rats as test animals. The preparations were administered for 10 days. Two procedures of the administration of these compounds prior to the removal of the primary tumor and introduction of the compound after the removal of the primary tumor. The efficiency of antimetastatic activity of esters of 2,6-dimethyl-1,4-dihydropyridine-3,5-dicarboxylic acid is assessed by the increase of the life duration of the test animals expressed as percentage of the life duration of the animals administered no preparation and serving as the control.

[4] = system: Walker carcinosarcoma; test: Antimetastatic activity: life duration of rats with Walker carcinosarcoma; assay type: in vivo; conditions: for Life duration, % of the control: Walker carcinosarcoma (rats), 10 days; for increase of the life time: rats, after the removal of Walker carcinoma
Method: as §1
Thus, disodium salt of carboxylatomethyl ester of 2,6-dimethyl-1,4-dihydropyridine-3,5-dicarboxylic acid administered in doses of 50 and 100 mg/kg during the period after the removal of Walker carcinoma increases the life time of the rest rats by 120 and 93% respectively. […] The effect of the compounds is most pronounced in tests with Walker carbinosarcoma on rats; a high efficiency is also noticed for sarcoma 536 with rats; less pronounced is the effect on Lewis lungs carcinoma with mice. The use of esters of 2,6-dimethyl-1,4-dihydropyridine-3,5-dicarboxylic acid provides no negative effect on physiological functions and behaviour of the test animals.

[5] = Solubility; assay type: physicochemical
[6] = system: sarcoma 536; test: Antimetastatic activity: life duration of rats with sarcoma 536; assay type: in vivo; conditions: Sarcoma 536 (rats), 10 days
Method: as §1

[7] = after the removal of the primary tumor, daily dose 50 mg/kg
[8] = after the removal of the primary tumor, daily dose 150 mg/kg
[9] = before the removal of the primary tumor, daily dose 100 mg/kg

Structure (SMILES): CC(CN1CC(=O)NC(=O)C1)N1CC(=O)NC(=O)C1 (racemic) [JCFR-159, (±) 1,2-bis(3,5-dioxopiperazin-1-yl)propane]
antimetastatic activity [1]: certain antimetastic activity
side effects ([2]; in vivo): causes leucopenia, thrombocytopenia and dyspeptic phenomena
toxicity ([2]; in words): somewhat toxic
LD50 ([2]; species and route not given): 1,000 mg/kg

solubility in alcohol [5]: sparingly soluble in alcohol
solubility in water [5]: highly soluble in water
Structure (SMILES): CC1=C(C(=O)OCC(=O)O)CC(C(=O)OCC(=O)O)=C(C)N1 [disodium carboxylate-methyl ester, disodium salt of carboxylate-methyl ester of 2,6-dimethyl-1,4-dihydropyridine-3,5-dicarboxylic acid]
Life duration, % of the control ([3]; daily dose 100 mg/kg): 120%
Life duration, % of the control ([3]; daily dose 150 mg/kg): 113%
Life duration, % of the control [4, 7]: 220%
Life duration, % of the control ([4]; after the removal of the primary tumor, daily dose 100 mg/kg): 193%
Life duration, % of the control [4, 8]: 112%
Life duration, % of the control ([4]; before the removal of the primary tumor, daily dose 50 mg/kg): 130%
Life duration, % of the control [4, 9]: 150%
increase of the life time ([4]; 50 mg/kg): 120%
increase of the life time ([4]; 100 mg/kg): 93%
Life duration, % of the control [6, 7]: 129%
Life duration, % of the control [6, 8]: 132%
Life duration, % of the control [6, 9]: 152%
Life duration, % of the control ([6]; before the removal of the primary tumor, daily dose 150 mg/kg): 138%

solubility in acetone ([5]; acetone): highly-soluble
solubility in alcohol [5]: highly-soluble
solubility in benzene ([5]; benzene): highly-soluble
solubility in chloroform ([5]; chloroform): highly-soluble
solubility in water [5]: insoluble in water
Structure (SMILES): CC1=C(C(=O)OC2CC(C)CCC2C(C)C)CC(C(=O)OC2CC(C)CCC2C(C)C)=C(C)N1 (centres unmarked) [menthyl ester, Menthyl ester of 2,6-dimethyl-1,4-dihydropyridine-3,5-dicarboxylic acid]
Life duration, % of the control ([4]; prior to the removal of the primary tumor, daily dose 150 mg/kg): 116%
Life duration, % of the control ([4]; prior to the removal of the primary tumor, daily dose 300 mg/kg): 165%
